The text below walks through data of publication PMC4457528, “Identification of Novel Small Molecule Inhibitors of Oncogenic RET Kinase” (PLoS ONE, 2015).

Experiment in all cases: KinomeScan kinase panel, single concentration 10 µM
Common to all, as to assay type: binding

In test [1] the target is T1, KinomeScan kinase panel (Homo sapiens, UniProt O94768).
T1 construct: purchased DiscoveRx (KinomeScan)
T1 sequence (O94768 1-372): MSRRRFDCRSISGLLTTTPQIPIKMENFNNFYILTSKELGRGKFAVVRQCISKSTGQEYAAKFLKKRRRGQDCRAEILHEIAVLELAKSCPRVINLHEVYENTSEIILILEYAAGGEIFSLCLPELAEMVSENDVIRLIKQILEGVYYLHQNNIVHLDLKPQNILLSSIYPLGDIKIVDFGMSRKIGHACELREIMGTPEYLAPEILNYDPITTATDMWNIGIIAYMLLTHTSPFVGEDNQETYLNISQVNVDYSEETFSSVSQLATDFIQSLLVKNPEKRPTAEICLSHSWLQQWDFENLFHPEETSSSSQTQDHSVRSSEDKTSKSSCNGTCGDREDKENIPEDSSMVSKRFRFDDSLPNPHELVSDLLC
As to conditions: DRAK2, 10 µM; read-out: score (%).

The target in test [2] is T2, KinomeScan kinase panel (Homo sapiens, UniProt P51817).
T2 construct: purchased DiscoveRx (KinomeScan)
T2 sequence (P51817 1-358): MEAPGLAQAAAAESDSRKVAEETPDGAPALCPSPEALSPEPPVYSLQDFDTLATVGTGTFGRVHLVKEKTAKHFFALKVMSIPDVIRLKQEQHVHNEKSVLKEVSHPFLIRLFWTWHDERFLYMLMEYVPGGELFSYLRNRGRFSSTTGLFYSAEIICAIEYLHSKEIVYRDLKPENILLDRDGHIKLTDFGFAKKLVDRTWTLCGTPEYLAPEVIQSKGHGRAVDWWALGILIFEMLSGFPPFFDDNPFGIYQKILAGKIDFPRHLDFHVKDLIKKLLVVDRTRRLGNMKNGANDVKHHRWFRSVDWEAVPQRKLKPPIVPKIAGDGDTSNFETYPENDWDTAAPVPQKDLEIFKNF
The following applies: 10 µM, read-out: score (%).

Test [3] addresses T3, KinomeScan kinase panel (Homo sapiens, UniProt Q13470).
T3 construct: purchased DiscoveRx (KinomeScan)
T3 sequence (Q13470 1-666): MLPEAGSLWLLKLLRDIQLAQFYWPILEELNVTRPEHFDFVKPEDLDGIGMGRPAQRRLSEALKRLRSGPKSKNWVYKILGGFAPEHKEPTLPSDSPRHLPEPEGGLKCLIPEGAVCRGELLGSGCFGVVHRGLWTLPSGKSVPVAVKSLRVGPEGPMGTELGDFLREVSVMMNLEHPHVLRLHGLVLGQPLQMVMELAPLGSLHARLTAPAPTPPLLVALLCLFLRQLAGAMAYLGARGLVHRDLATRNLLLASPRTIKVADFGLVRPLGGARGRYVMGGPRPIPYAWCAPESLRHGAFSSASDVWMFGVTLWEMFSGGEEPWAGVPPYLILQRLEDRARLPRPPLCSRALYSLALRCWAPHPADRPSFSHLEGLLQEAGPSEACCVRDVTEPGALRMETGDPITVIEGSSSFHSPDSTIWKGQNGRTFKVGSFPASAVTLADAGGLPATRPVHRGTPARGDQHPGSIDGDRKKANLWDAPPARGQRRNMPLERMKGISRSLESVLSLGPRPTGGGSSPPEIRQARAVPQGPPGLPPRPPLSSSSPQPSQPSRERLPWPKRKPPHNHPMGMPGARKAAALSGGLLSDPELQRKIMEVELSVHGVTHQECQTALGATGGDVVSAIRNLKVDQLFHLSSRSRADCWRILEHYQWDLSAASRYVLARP
As to conditions: read-out: score (%).

Test [4] concerns the target T4, KinomeScan kinase panel (Homo sapiens, UniProt Q14164).
T4 construct: purchased DiscoveRx (KinomeScan)
T4 sequence (Q14164 1-716): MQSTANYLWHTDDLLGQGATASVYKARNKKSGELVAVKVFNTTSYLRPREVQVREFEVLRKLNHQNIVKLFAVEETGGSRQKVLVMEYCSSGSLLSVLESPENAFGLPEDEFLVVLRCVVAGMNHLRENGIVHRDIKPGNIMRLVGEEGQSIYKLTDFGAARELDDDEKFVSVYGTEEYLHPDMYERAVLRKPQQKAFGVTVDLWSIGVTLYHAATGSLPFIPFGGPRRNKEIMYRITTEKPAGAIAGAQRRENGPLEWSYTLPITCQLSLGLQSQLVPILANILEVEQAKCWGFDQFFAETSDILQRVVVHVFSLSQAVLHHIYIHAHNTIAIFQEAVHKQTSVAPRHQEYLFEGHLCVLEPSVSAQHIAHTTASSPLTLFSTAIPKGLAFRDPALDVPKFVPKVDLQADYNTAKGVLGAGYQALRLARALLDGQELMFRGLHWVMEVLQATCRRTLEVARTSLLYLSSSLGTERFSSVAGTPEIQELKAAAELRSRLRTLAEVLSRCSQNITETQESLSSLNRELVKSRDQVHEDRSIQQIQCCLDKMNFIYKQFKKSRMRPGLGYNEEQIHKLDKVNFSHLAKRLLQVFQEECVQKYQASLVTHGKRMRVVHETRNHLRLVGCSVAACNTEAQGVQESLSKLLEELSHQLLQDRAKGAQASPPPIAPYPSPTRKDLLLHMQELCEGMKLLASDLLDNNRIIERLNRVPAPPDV
The following applies: IKK-epsilon, 10 µM; read-out: score (%).

For test [5], the target named is T5, KinomeScan kinase panel (Homo sapiens, UniProt Q15375).
T5 construct: purchased DiscoveRx (KinomeScan)
As to conditions: EPHA7, 10 µM; read-out: score (%).

For test [6], the target named is T6, KinomeScan kinase panel (Homo sapiens, UniProt Q99640).
T6 construct: purchased DiscoveRx (KinomeScan)
T6 sequence (Q99640 1-499): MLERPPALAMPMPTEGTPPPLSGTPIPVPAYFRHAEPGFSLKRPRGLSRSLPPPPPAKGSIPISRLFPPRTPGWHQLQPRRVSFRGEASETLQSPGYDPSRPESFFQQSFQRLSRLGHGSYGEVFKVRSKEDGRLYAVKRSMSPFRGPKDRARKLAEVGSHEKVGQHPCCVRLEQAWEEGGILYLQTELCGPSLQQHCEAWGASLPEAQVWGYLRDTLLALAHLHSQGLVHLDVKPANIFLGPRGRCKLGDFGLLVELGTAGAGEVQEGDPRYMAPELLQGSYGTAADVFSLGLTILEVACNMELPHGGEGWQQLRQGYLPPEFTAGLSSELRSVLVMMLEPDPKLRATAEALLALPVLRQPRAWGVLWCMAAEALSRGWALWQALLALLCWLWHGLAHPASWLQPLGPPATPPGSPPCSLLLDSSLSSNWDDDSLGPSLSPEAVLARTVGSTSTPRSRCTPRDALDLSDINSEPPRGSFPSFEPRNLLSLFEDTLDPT
The following applies: PKMYT1, 10 µM.

Where two headings read alike, the source gives them in different places. Bounds are passed on as bounds.

T5 sequence (Q15375 28-998): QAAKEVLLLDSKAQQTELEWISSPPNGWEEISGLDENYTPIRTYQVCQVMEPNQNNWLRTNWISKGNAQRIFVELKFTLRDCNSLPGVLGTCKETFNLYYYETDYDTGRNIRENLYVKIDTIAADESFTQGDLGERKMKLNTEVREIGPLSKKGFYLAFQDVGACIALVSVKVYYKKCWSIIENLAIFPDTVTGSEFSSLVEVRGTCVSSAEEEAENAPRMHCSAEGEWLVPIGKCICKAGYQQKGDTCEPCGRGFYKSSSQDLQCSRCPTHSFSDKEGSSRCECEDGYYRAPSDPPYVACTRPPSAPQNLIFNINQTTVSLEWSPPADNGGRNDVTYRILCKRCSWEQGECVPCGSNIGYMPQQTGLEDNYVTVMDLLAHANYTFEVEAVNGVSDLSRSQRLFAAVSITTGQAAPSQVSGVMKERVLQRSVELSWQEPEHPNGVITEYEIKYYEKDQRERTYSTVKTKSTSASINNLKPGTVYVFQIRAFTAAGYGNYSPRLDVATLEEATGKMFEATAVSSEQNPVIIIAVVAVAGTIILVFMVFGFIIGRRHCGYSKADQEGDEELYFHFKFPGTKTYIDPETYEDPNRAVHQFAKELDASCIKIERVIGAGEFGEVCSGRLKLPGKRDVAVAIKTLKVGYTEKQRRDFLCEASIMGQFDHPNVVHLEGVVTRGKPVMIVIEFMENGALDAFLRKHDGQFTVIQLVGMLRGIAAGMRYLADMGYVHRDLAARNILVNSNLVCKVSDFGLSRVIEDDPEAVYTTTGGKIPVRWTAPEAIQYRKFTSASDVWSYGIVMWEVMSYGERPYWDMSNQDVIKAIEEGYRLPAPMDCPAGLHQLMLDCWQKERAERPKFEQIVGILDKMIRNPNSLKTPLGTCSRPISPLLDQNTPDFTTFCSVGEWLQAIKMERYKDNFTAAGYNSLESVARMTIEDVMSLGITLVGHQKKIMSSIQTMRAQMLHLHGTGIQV

In the case of `CCN1CCN(Cc2ccc(NC(=O)c3ccc(C)c(NC(=O)c4cncc(-c5cccs5)c4)c3)cc2C(F)(F)F)CC1` [ALW-II-41-27], the remaining binding at 10 µM at KinomeScan kinase panel [1] was 31%; on KinomeScan kinase panel [2] (PRKX), over 30%; on KinomeScan kinase panel [3] (kinase TNK1, 10 µM), 7.7%; on KinomeScan kinase panel [4] it was over 30%; at KinomeScan kinase panel [5], over 30%. In addition, the “score (%)” value at KinomeScan kinase panel [6] is reported as “nb (Hits values higher than 30% were considered negative (no binding: nb))”.

On to `CCN1CCN(Cc2ccc(NC(=O)c3ccc(C)c(/C=C/c4cnc5[nH]ccc5c4Cl)c3)cc2C(F)(F)F)CC1` [HG-6-63-01, (E)-3-(2-(4-chloro-1H-pyrrolo[2,3-b]pyridin-5-yl)vinyl)-N-(4-((4-ethylpiperazin-1-yl)methyl)-3-(trifluoromethyl)phenyl)-4-methylbenzamide], for which the remaining binding at 10 µM was 1.6% on KinomeScan kinase panel [1]; over 30% on KinomeScan kinase panel [2] (PRKX); 0.8% on KinomeScan kinase panel [3] (TNK1, 10 µM); over 30% at KinomeScan kinase panel [4]; over 30% at KinomeScan kinase panel [5]. For the same compound, the “score (%)” value at KinomeScan kinase panel [6] was “nb (Hits values higher than 30% were considered negative (no binding: nb))”.

With `CCN1CCN(Cc2ccc(NC(=O)c3ccc(C)c(C#Cc4cccnc4)c3)cc2C(F)(F)F)CC1` [XMD15-44], the remaining binding at 10 µM at KinomeScan kinase panel [1] is over 30%; on KinomeScan kinase panel [2] (kinase PRKX), 3.6%; on KinomeScan kinase panel [3] (kinase TNK1, 10 µM), 0%; at KinomeScan kinase panel [4], over 30%; at KinomeScan kinase panel [5], 0.55%. In addition, the “score (%)” value at KinomeScan kinase panel [6] was determined as 85%.
